Measurements reported in patent US8748661B2, “Polyamino polyketide antibiotics and uses thereof” (priority 2008, dated 2014).
Converted amounts (≈) assume the structure as drawn.

Key:
Type in all cases: cell-based
Aeromonas hydrophila = assay: MIC determination (NCCLS, 96-well, LB); conditions: 1 × 10^6 CFU/ml in LB, 30° C., 24 h
Procedure: (§1) The minimum inhibition concentration (MIC) of zeamine I was carried out according to the NCCLS guidelines (4). Briefly, 96-well plates containing 2-fold serial dilutions of zeamine I and control antibiotics were prepared with LB liquid medium. The fresh overnight LB cultures of tested bacterial strains were then inoculated to the above plates after dilution to yield a final density of 10^6 CFU/ml and 10^7 CFU/ml, respectively. The plates were then incubated with gentle shaking at 30° C. or 37° C. depending on the preferred growth temperature of the tested strains. After 24 h, the plates were collected to measure OD600. The MIC was defined as the lowest concentration of the antibiotic allowing no visible growth. The MIC assay was repeated twice each time with triplicate.

Bacillus cereus XJ8 = assay: MIC determination (NCCLS, 96-well, LB); conditions: 1 × 10^6 CFU/ml in LB, 30° C., 24 h
Procedure: as §1

[1] = system: Burkholderia cepacia H111; assay: MIC determination (NCCLS, 96-well, LB); conditions: 1 × 10^6 CFU/ml in LB, 30° C., 24 h
Procedure: as §1

[2] = system: Burkholderia cepacia J2315; assay: MIC determination (NCCLS, 96-well, LB); conditions: 1 × 10^6 CFU/ml in LB, 30° C., 24 h
Procedure: as §1

E. coli CFT073 = assay: MIC determination (NCCLS, 96-well, LB); conditions: Escherichia coli, 1 × 10^6 CFU/ml in LB, 30° C., 24 h
Procedure: as §1

E. coli DH5α = assay: MIC determination (NCCLS, 96-well, LB); conditions: Escherichia coli, 1 × 10^6 CFU/ml in LB, 30° C., 24 h
Procedure: as §1

[3] = system: Enterobacter aerogenes ATCC 13048; assay: MIC determination (NCCLS, 96-well, LB); conditions: Klebsiella aerogenes, ATCC13048, 1 × 10^6 CFU/ml in LB, 30° C., 24 h
Procedure: as §1

Klebsiella pneumonia = assay: MIC determination (NCCLS, 96-well, LB); conditions: Klebsiella pneumoniae, 1 × 10^6 CFU/ml in LB, 30° C., 24 h
Procedure: as §1

[4] = system: Pseudomonas aeruginosa PA14; assay: MIC determination (NCCLS, 96-well, LB); conditions: 1 × 10^6 CFU/ml in LB, 30° C., 24 h
Procedure: as §1

[5] = system: Pseudomonas aeruginosa PAO1; assay: MIC determination (NCCLS, 96-well, LB); conditions: 1 × 10^6 CFU/ml in LB, 30° C., 24 h
Procedure: as §1

Salmonella enterica = assay: MIC determination (NCCLS, 96-well, LB); conditions: 24 h
Procedure: as §1

[6] = system: Staphylococcus aureus ATCC 25531; assay: MIC determination (NCCLS, 96-well, LB); conditions: ATCC25531, 1 × 10^6 CFU/ml in LB, 30° C., 24 h
Procedure: as §1

[7] = system: Staphylococcus aureus BBA-41; assay: MIC determination (NCCLS, 96-well, LB); conditions: BBA41, 1 × 10^6 CFU/ml in LB, 30° C., 24 h
Procedure: as §1

[8] = system: Gram-negative and Gram-positive bacterial pathogens; assay: MIC on a range of bacterial pathogens (summary statement); conditions: summary of Table 3, in words
Procedure: as §1
The minimum inhibition concentration (MIC) of zeamine I was determined on a range of bacterial pathogens. […] In contrast, a high dosage of ampicillin, which is a commonly used antibiotic, was required to inhibit the growth of these bacterial pathogens.

[9] = system: Escherichia coli strain DH5α; assay: Antibiotic bioassay (agar well inhibition zone); conditions: 20 microliters of fraction in 4-mm wells, 37° C. overnight
Procedure: The bactericidal activity was assayed using Escherichia coli strain DH5α following the method described previously by Zhang et al. (Zhang et al. (1998). Factors affecting biosynthesis by Xanthomonas albilineans of albicidin antibiotics and phytotoxins. J. Appl. Microbiol. 85: 1023-1028). Briefly, an overnight LB culture of strain DH5α was diluted by 10-fold in sterilized water, and 100 microliters of the dilute were added to 5 ml of 1% agarose solution, which was autoclaved with temperature being maintained at 50° C. The bioassay plate was prepared by adding the mixture onto a plate containing 20 ml LB agar. Bioassay was conducted by adding 20 microliters of bacterial supernatants or fractions to the 4-mm diameter wells in bioassay plate. The plate was incubated at 37° C. overnight before examination of inhibition zone.

Row | Compound | MIC (Aeromonas hydrophila) | MIC (Bacillus cereus XJ8) | MIC [1] | MIC [2] | MIC (E. coli CFT073) | MIC (E. coli DH5α) | MIC [3] | MIC (Klebsiella pneumonia) | MIC [4] | MIC [5] | MIC (Salmonella enterica) | MIC [6] | MIC [7] | dosage required to inhibit the growth of these bacterial pathogens [8] | antibiotic activity of HPLC fraction in bioassay [9]
1 | NC[C@H]1O[C@H](O[C@H]2[C@H](O)[C@@H](O[C@H]3O[C@H](CO)[C@@H](O)[C@H](N)[C@H]3O)[C@H](N)C[C@@H]2N)[C@H](O)[C@@H](O)[C@@H]1O [Kanamycin] | 25 mg/L (≈ 51.6 µM) | 3.1 mg/L (≈ 6.4 µM) | 6.2 mg/L (≈ 12.8 µM) | 400 mg/L (≈ 826 µM) | 6.2 mg/L (≈ 12.8 µM) | 10 mg/L (≈ 20.6 µM) | 3.1 mg/L (≈ 6.4 µM) | 3.1 mg/L (≈ 6.4 µM) | 200 mg/L (≈ 413 µM) | 200 mg/L (≈ 413 µM) | 12.5 mg/L (≈ 25.8 µM) | 6.2 mg/L (≈ 12.8 µM) | 12.5 mg/L (≈ 25.8 µM) | – | –
2 | CC1(C)S[C@@H]2[C@H](NC(=O)[C@H](N)c3ccccc3)C(=O)N2[C@H]1C(=O)O [Ampicillin] | 125 mg/L (≈ 358 µM) | 100 mg/L (≈ 286 µM) | > 800 mg/L | > 800 mg/L | 25 mg/L (≈ 71.5 µM) | 25 mg/L (≈ 71.5 µM) | > 800 mg/L | > 800 mg/L | 800 mg/L (≈ 2290 µM) | 400 mg/L (≈ 1140 µM) | 12.5 mg/L (≈ 35.8 µM) | 15.6 mg/L (≈ 44.6 µM) | > 500 mg/L | high dosage | –
3 | CN(C)[C@@H]1C(O)=C(C(N)=O)C(=O)[C@@]2(O)C(O)=C3C(=O)c4c(O)cccc4[C@@](C)(O)[C@H]3C[C@@H]12 [Tetracycline] | 6.2 mg/L (≈ 14 µM) | 6.2 mg/L (≈ 14 µM) | 12.5 mg/L (≈ 28.1 µM) | 50 mg/L (≈ 113 µM) | 0.75 mg/L (≈ 1.69 µM) | 3.1 mg/L (≈ 6.98 µM) | 3.1 mg/L (≈ 6.98 µM) | 6.2 mg/L (≈ 14 µM) | 12.5 mg/L (≈ 28.1 µM) | – | – | 3.1 mg/L (≈ 6.98 µM) | 6.2 mg/L (≈ 14 µM) | – | –
4 | CCCCCC(N)CCCCCCCC(N)CCCCCCCC(N)CCCCCCCC(N)CCCCCCCC(O)CCN (stereo not drawn) [Zeamine II] | – | – | – | – | – | – | – | – | – | – | – | – | – | – | minor active fraction
